Calls of active or inactive are those of the source.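 How the source made its calls: active means half-maximal concentration for changing protein binding to DNA, from the fitted dose curve, below 10 micromolar; inactive means the rest.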
Target: Nuclear receptor subfamily 1 group D member 1 (Homo sapiens) (UniProt P20393)
Assay: modulators of Rev-erb alpha DNA binding, dose response, biochemical, FITC-DNA, fluorescence polarization (AID 1259321)

Sequence of Nuclear receptor subfamily 1 group D member 1 (Homo sapiens) (P20393 whole entry, looked up): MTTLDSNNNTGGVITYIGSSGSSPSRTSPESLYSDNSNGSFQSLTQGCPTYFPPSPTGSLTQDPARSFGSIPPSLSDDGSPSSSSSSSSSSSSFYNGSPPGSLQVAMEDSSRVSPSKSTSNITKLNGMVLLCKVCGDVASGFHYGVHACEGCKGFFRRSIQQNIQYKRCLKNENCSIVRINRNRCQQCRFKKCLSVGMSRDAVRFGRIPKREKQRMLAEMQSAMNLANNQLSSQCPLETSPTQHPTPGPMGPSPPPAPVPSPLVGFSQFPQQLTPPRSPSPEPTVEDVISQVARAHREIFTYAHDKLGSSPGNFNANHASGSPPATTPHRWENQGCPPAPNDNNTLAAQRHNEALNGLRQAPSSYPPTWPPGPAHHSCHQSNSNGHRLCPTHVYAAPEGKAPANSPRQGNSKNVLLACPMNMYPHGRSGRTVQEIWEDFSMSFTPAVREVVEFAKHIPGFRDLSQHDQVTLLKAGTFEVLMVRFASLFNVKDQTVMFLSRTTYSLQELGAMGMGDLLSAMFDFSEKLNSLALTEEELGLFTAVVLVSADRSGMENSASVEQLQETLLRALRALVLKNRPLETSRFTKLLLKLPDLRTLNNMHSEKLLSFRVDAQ

| SMILES | IC50 |
| --- | --- |
| O=C1c2c(Br)c(Br)c(Br)c(Br)c2C(=O)N1c1ccccn1 | 8.24 µM |
| Cc1c(C2N3CC4(C)CN2CC(C)(C3)C4=O)c2ccccc2n1C (stereo unspecified) | inactive |
| O=C(Nc1ccc2oc(-c3cccc(F)c3)nc2c1)c1ccccc1F | 2.87 µM |
| CCSc1nnc(-c2ccc(Cl)cc2)c2ccccc12 | 7.11 µM |
| Cc1nc(SCC(=O)NCCc2ccccc2)c2oc3ccccc3c2n1 | 4.25 µM |
| CCc1ccc(-c2nc(NC(=O)c3ccc(OCC(=O)Nc4ccc(F)cc4)c(OC)c3)sc2C)cc1 | 9.3 µM |
| CC(C)(C)C(=O)Nc1cc(S(=O)(=O)N2CCCCC2)ccc1N1CCCCC1 | > 40 µM (inactive) |
| Fc1ccc2nc(Nc3nc4cc5c(cc4s3)OCCO5)sc2c1 | 6.87 µM |
| CCOC(=O)c1nn(-c2ccc(Cl)cc2)c2nc(-c3ccc(C)cc3)c(C#N)c(=O)n12 | 2 µM |
| CCN1/C(=C/c2ccc3cc(C)cc(C)c3[n+]2CC)Sc2cc(C)ccc21 | > 40 µM (inactive) |
| O=c1[nH]c(Cc2ccc(F)cc2)nc2scc(-c3ccc(F)cc3)c12 | 9.5 µM |
| COc1ccc(C(=O)NNC(=O)C(Cc2ccc(O)cc2)NC(=O)c2ccccc2NC(=O)c2ccc(OC)cc2)cc1 (stereo unspecified) | inactive |
| CCNC(=O)C[C@H]1CC[C@H]2[C@@H](COc3ccc(NC(=O)c4ccc5c(c4)OCO5)cc3C(=O)N2C)O1 | inactive |
| Nc1nc(-c2cccs2)c(-c2cccs2)s1 | 1.43 µM |
| CCN(CC)C(=O)CSc1nc2cc3c(cc2c(=O)n1Cc1ccc(OC)cc1)OCO3 | > 40 µM (inactive) |
| COc1ccc(Cl)cc1C(=O)Nc1cccc(-c2ccc3nncn3n2)c1 | 7.26 µM |
| CCCN=C(C)c1c(-c2ccccc2)[nH]n(-c2nc3ccccc3s2)c1=O | 0.917 µM |
| O=S(=O)(c1ccc2nc(N3CCN(c4ccccc4)CC3)ccc2c1)N1CCCCC1 | inactive |
| COc1cc(C=Cc2nnc3c4ccccc4cnn23)cc(OC)c1OC | inactive |
| CC(=O)Oc1ccc(/C=N\NC(=O)c2cc3c(ccc4ccccc43)o2)cc1 | inactive |
| COc1ccc(/C=C2/SC(=O)N(CCC(=O)Nc3ccccc3)C2=O)cc1OC | 9.31 µM |
| C/C(=N\NC(=O)COc1cccc(C)c1)c1ccc2ccccc2c1O | 7.63 µM |
| Nc1ccc2ccc3cccc[n+]3c2c1 | 8.15 µM |
| CCCC1(c2ccccc2)NC(=O)N(CC(=O)Nc2sc(-c3ccccc3)cc2C(=O)OCC)C1=O (stereo unspecified) | inactive |
| CCCSc1nc(SCC(=O)NCc2ccccc2)c2c3c(sc2n1)COC(C)(CC)C3 (stereo unspecified) | > 40 µM (inactive) |
| O=C(N=c1ccn(-c2nc3ccccc3nc2NS(=O)(=O)c2ccccc2)cc1)c1cccs1 | inactive |

| SMILES | IC50 |
| --- | --- |
| CCN1/C(=C/c2ccc3cc(C)ccc3[n+]2CC)Sc2cc(C)ccc21 | > 40 µM (inactive) |
| CCCCN1C(=O)/C(=C/C=C2\Oc3ccccc3N2CC)SC1=S | 4.41 µM |
| O=C(OCC(=O)c1c[nH]c2ccccc12)c1cc(Br)ccc1O | 5.27 µM |
| COC(=O)c1cccc(Cn2ccc3ccc(-c4ccc5ccn(C(=O)c6cccc(OC)c6)c5c4)cc32)c1 | > 40 µM (inactive) |
| CCOc1cc(N(CC)CC)ccc1/C=C(/C#N)c1nc2ccccc2[nH]1 | inactive |
| CN1C(=O)N(C)c2ccc(Br)c3cccc1c23 | > 40 µM (inactive) |
| Cc1cc(C)c2cc(C#N)c(SCC(=O)Nc3ccc4c(c3)OCO4)nc2c1 | 7.14 µM |
| CC1CCN(Cc2cc(=O)oc3ccc(C(C)C)cc23)CC1 | 9.88 µM |
| CCOC(=O)c1c(NC(=O)C2CCCN(S(=O)(=O)c3ccccc3)C2)sc2c1CCCC2 (stereo unspecified) | 3.46 µM |
| Cc1ccc(-n2c(N)c(C#N)c(-c3ccc(Cl)cc3)c(C#N)c2=O)cc1 | 4.59 µM |
| CCSc1nnc(NC(=O)c2cc3c(s2)CCCC3)s1 | 1.58 µM |
| CC(=O)c1sc(NC(=O)COc2ccc(Br)cc2)nc1C | 4.41 µM |
| Cc1c(Cl)cc(C(C)C)c(O)c1CN1CCOCC1 | > 40 µM (inactive) |
| COc1cccc(-n2nnnc2SCC(=O)Nc2ccc3c(c2)OCCO3)c1 | inactive |
| CCN(CC)c1ccc(/C=C(\C#N)C(N)=S)cc1 | inactive |
| Cc1c(Br)ccc(NC(=O)Cn2nc(-c3cccs3)ccc2=O)c1C | 4.84 µM |
| CCc1nc(SCC(=O)Nc2ccc3c(c2)OCCO3)c2oc3ccccc3c2n1 | 1.3 µM |
| Cc1nc(SCc2nc3ccccc3[nH]2)c2oc3cc(Br)ccc3c2n1 | 9.38 µM |
| CC(C)(C#N)Cc1cc(CC(C)(C)C#N)cc(C(C)(C)C)c1 | 4.07 µM |
| CC(C)NC(=O)CSc1nc(-c2cccs2)cc(-c2ccccc2)c1C#N | 3.27 µM |
| Oc1ccccc1-c1nc(N2CCCC2)c2ccccc2n1 | 2.1 µM |
| COc1ccc2nc(SCC(=O)NC3CCCC3)c(C)cc2c1 | 4.48 µM |
| CCOC(=O)C(C)Sc1cc(CS(=O)(=O)c2ccccc2)nc(-c2ccccc2)n1 (stereo unspecified) | > 40 µM (inactive) |
| COc1ccc(CCn2c(-c3ccc(OC)cc3)nc3c(c(=O)c4ccccc4n3C)c2=O)cc1 | 7.79 µM |
| CCn1c2ccccc2c2cc(C3C(C#N)=C(C)NC(C)=C3C#N)ccc21 | > 40 µM (inactive) |
| COc1cccc(-n2c([S-])c(C(=O)Nc3ccc(S(=O)(=O)N4CCOCC4)cc3)[n+]3cc(C(N)=O)ccc23)c1 | > 40 µM (inactive) |

| SMILES | IC50 |
| --- | --- |
| CCCN1C(=O)S/C(=C/c2ccc(N3CCOCC3)o2)C1=O | 5.84 µM |
| N#Cc1cc(C#N)c(N2CCN(c3cccc(Cl)n3)CC2)nc1N | 5.79 µM |
| N#Cc1ccc(Oc2ccc(-c3nc4ccccc4nc3-c3ccccc3)cc2)cc1C#N | 4.49 µM |
| O=C(CCCOc1ccc(Cl)cc1Cl)NNC(=O)c1ccc(NC(=O)c2ccccc2)cc1 | 5.81 µM |
| Cc1ccc(C(=O)Nc2cccc(C(F)(F)F)c2)cc1NC(=O)c1nccn1C | 6.88 µM |
| N#CCNC(=O)c1nn2c(C(F)(F)F)cc(-c3ccccc3)nc2c1Br | 3.58 µM |
| CCOc1ccc2nc(N/C(N)=N/C(=S)Nc3cccc(C)c3)nc(C)c2c1 | 8.37 µM |
| CN(C)c1ccc(/C=C2\NC(=S)N(Cc3ccccc3)C2=O)cc1 | > 40 µM (inactive) |
| Cc1cccc(NC(=O)C2CCCN(S(=O)(=O)c3cccc4nsnc34)C2)c1 (stereo unspecified) | 2.17 µM |
| COc1ccc(C#Cc2ccc(C3=CC(=O)CC(C)(C)C3=O)cc2)cc1 | 0.472 µM |
| CCOC(=O)N1CCC(n2c(SCC(=O)c3ccccc3)nc3ccsc3c2=O)CC1 | 2.26 µM |
| COc1cc2c(cc1OC)-c1cc3ccc4c(c3c[n+]1CC2)OCO4 | inactive |
| COc1cc2c3nnc(-c4ccc(F)cc4)c-3cn(Cc3ccccc3)c2cc1OC | inactive |
| COc1ccc2[nH]c(C(=O)Nc3ccccc3Cl)cc2c1 | > 40 µM (inactive) |
| CN(CCC#N)c1ccc(/C=C(\C#N)c2ccccn2)cc1 | 5.63 µM |
| Cc1cc(-c2cccc([N+](=O)[O-])c2)nc2ccc3ccccc3c12 | 3 µM |
| O=C(CCSc1nnc2scc(-c3ccccc3)n12)Nc1nc(-c2ccccc2)ns1 | inactive |
| Cc1nn(C)c(C)c1NC(=O)CSc1nc(-c2ccccc2Cl)nc2c1cnn2-c1ccccc1 | 0.879 µM |
| O=C(COC(=O)c1cc(Br)ccc1O)Nc1cccnc1Cl | 2.58 µM |
| COC(=O)c1sc2nc3c(cc2c1N)C(=O)CC(C)(C)C3 | inactive |
| Cc1ccc(NC(=O)c2sc(Cl)nc2-c2ccccc2)cc1C | inactive |
| C=CCn1c(SCCNC(C)=O)nc2cc(-c3ccccc3)sc2c1=O | inactive |
| COc1ccc2c(Cl)c(-c3nnc(SCC(=O)c4ccccc4)n3C)sc2c1 | 3.42 µM |
| Fc1ccc2nc(Nc3nc4c(F)cc(F)cc4s3)sc2c1 | 7.05 µM |
